Values of other authors, collected in patent US12491200B2, “Compositions and methods using cannabinoids for treating stammering/stuttering and symptoms of Tourette syndrome” (priority 2019, dated 2025).

How the values were obtained:
[1] = test system: developmental stuttering
[2] = test system: tic disorders; details: for tic symptom score: compared with placebo; for most common adverse events: tic disorders
[3] = test system: Tourette syndrome; details: patients aged between 16 and 19; very high doses

Structure (SMILES)	speech fluency [1]	tic symptom score [2]	most common adverse events [2]	symptoms such as vocal blocking tics and comorbid conditions [3]
N[C@@H](Cc1ccc(O)c(O)c1)C(=O)O [levodopa]	worsening speech fluency			
OCCOCCN1CCN(C2=Nc3ccccc3Sc3ccccc32)CC1 [quetiapine]		significantly improve tic symptom score		
O=C1CCc2ccc(OCCCCN3CCN(c4cccc(Cl)c4Cl)CC3)cc2N1 [aripiprazole]		significantly improve tic symptom score	dizziness, nausea, and dry mouth	
O=C(CCCN1CCC(O)(c2ccc(Cl)cc2)CC1)c1ccc(F)cc1 [haloperidol]	improve speech fluency	significantly improve tic symptom score	drowsiness, extrapyramidal reactions, and dry mouth	
CCCCCc1cc(O)c2c(c1)OC(C)(C)[C@@H]1CCC(C)=C[C@@H]21 [synthetic THC, delta-9-tetrahydrocannabinol]				significant improvement
Cc1nc2n(c(=O)c1CCN1CCC(c3noc4cc(F)ccc34)CC1)CCCC2 [risperidone]	improve speech fluency	significantly improve tic symptom score	drowsiness and appetite	
O=C1Cc2cc(CCN3CCN(c4nsc5ccccc45)CC3)c(Cl)cc2N1 [ziprasidone]		significantly improve tic symptom score		
CCN(CC)CCNC(=O)c1cc(S(C)(=O)=O)ccc1OC [tiapride]			dizziness, nausea, and dry mouth	
